According to patent publication US12374538B2, “Systems and methods for quantifying an analyte extracted from a sample” (Purdue Research Foundation, priority 2014, dated 2025):
“And” between values parts separate entries of the source, which are not always exact repeats. Equal values may be shown once.

test system: not given; conditions: log([solute]octanol/[solute]water), un-ionized compound; cited from earlier work

| SMILES | Log P (partition coefficient) |
| --- | --- |
| Cc1ccc(/N=C/N(C)/C=N/c2ccc(C)cc2C)c(C)c1 [amitraz] | 5 |
| CN1C(=O)CC[C@H]1c1cccnc1 [cotinine] | 0.07 |
| CN1[C@H]2CC[C@@H]1[C@@H](C(=O)O)[C@@H](OC(=O)c1ccccc1)C2 [benzoylecgonine] | −0.59 and −0.6 |
| N[C@@H](Cc1ccccc1)C(=O)O [phenylalanine] | −1.38 |

test system: cholinesterase (ChE); conditions: human whole blood diluted 10 times, acetylthiocholine 1.8 mg/mL, 5 min incubation in capillary, vs control
Experimental: For testing of a particular solvent, 5 μL blood sample (diluted) was injected into the capillary with the extraction solvent plug immediately after the mixing the acetylthiocholine into the blood. After the 5 min incubation in capillary, the TCh/ATch ratio was measured using SFME nanoESI MS. For the control, 5 min after the mixing acetylthiocholine into the diluted blood, the sample was taken and analyzed immediately using SFME nanoESI MS with ethyl acetate as the extraction phase. Spray voltage of 1.5 kV was used for nanoESI.
SFME-nanoESI was applied for monitoring the enzymatic activity of cholinesterase (ChE) in whole blood samples. […] The blood sample was diluted 10 times to slow down the reaction rate as well as to facilitate the slug flows for SFME. The substrate acetylthiocholine iodine was added into the diluted blood sample at a concentration of 1.8 mg/mL, and then 5 μL sample was taken immediately and injected into the capillary with 5 μL extraction phase. The capillary with the sample and the extraction solvent was left in room temperature 25° C. for incubation. The SFME-nanoESI could be performed repeatedly on the same sample and the ratio of the substrate ATCh and the reaction product TCh could be monitored as a function of time to characterize the enzymatic activity of the ChE. […]

| SMILES | reduction of ChE activity due to contact with extraction solvent |
| --- | --- |
| CCOC(C)=O [ethyl acetate] | minimal |
| ClC(Cl)Cl [chloroform] | more than 60% |
